Assay results: patent US11452731B2, “Method of treating and preventing loss of cognition” (ENDORECHERCHE, INC., priority 2009, dated 2022)

Assay: Clinical trial ERC-205: DHEA 50 mg daily versus placebo on hot flushes in postmenopausal women (Example 10)
Format: in vivo
Conditions: 50 mg, strata 50 to 70 hot flushes per week at screening
Experimental: Postmenopausal women experiencing moderate or severe hot flushes per week (as determined by a two week diary) were randomized to receive a daily dose of either placebo or 50 mg DHEA. Fifty evaluable participants (25 patients per arm) were treated for four months with a daily assessment of hot flushes recorded in a diary completed by each participant.
Postmenopausal women aged 40 to 70 years with moderate or severe hot flushes per week, as confirmed by a two-week screening hot flush diary were enrolled after signing informed consent. The protocol was approved by the Institutional Review Board (IRB) of Le Centre Hospitalier de l'Université Laval and by Health Canada.
The primary endpoint was the change from Baseline in the weekly frequency of moderate to severe hot flushes at Week 16, after four months of treatment. The objectives also included the change from Baseline in the weekly frequency of all hot flushes and the change from Baseline in the weekly weighted severity score.
The response endpoint is the patient's paper diary which was filled in daily to specify the number and type of hot flushes as follows:
The hot flush diary began as a Screening diary for two weeks prior to randomization whereby patients had to complete the diary daily, recording the number and severity of hot flushes. The patients had to record an average of 50 or more moderate or severe hot flushes per week over the two-week period to be eligible (i.e., at least 100 hot flushes documented on the two week Screening diary).
Once randomized, the patient completed eight, two-week hot flush diaries upon beginning study medication. The diaries had to be filled out on a daily basis. The first diary was completed over the first two weeks and be returned on the two week visit. The second two-week diary was completed over the next two weeks of the first four week treatment period and was returned at the four week visit. At 4, 8, 12 and 16 week visits, two two-week diaries for hot flushes were collected.

[1] = Screening (mean of 2 w), baseline

With `C[C@]12CC[C@H](O)CC1=CC[C@@H]1[C@@H]2CC[C@]2(C)C(=O)CC[C@@H]12` [DHEA, dehydroepiandrosterone] the “NUMBER OF ALL HOT FLUSHES PER WEEK (MEAN)” value [1] was 63.7, the “NUMBER OF MODERATE TO SEVERE HOT FLUSHES PER WEEK (MEAN)” value [1] was 56.7 and the “WEIGHTED SEVERITY SCORE OF HOT FLUSHES PER WEEK (MEAN)” value [1] was 144.3. The “NUMBER OF ALL HOT FLUSHES PER WEEK (MEAN)” value (Week 1) was 60.8, the “NUMBER OF MODERATE TO SEVERE HOT FLUSHES PER WEEK (MEAN)” value (Week 1) was 54.2 and the “WEIGHTED SEVERITY SCORE OF HOT FLUSHES PER WEEK (MEAN)” value (Week 1) was 141.0. The “NUMBER OF ALL HOT FLUSHES PER WEEK (MEAN)” value (Week 2) was 55.3, the “NUMBER OF MODERATE TO SEVERE HOT FLUSHES PER WEEK (MEAN)” value (Week 2) was 49.0 and the “WEIGHTED SEVERITY SCORE OF HOT FLUSHES PER WEEK (MEAN)” value (Week 2) was 127.1. The “NUMBER OF ALL HOT FLUSHES PER WEEK (MEAN)” value (Week 3) was 52.3, the “NUMBER OF MODERATE TO SEVERE HOT FLUSHES PER WEEK (MEAN)” value (Week 3) was 46.5 and the “WEIGHTED SEVERITY SCORE OF HOT FLUSHES PER WEEK (MEAN)” value (Week 3) was 118.9. For the same compound, the “NUMBER OF ALL HOT FLUSHES PER WEEK (MEAN)” value (Week 4) was 49.4, the “NUMBER OF MODERATE TO SEVERE HOT FLUSHES PER WEEK (MEAN)” value (Week 4) was 44.0 and the “WEIGHTED SEVERITY SCORE OF HOT FLUSHES PER WEEK (MEAN)” value (Week 4) was 111.6. The “NUMBER OF ALL HOT FLUSHES PER WEEK (MEAN)” value (Week 5) was 42.7, the “NUMBER OF MODERATE TO SEVERE HOT FLUSHES PER WEEK (MEAN)” value (Week 5) was 38.3 and the “WEIGHTED SEVERITY SCORE OF HOT FLUSHES PER WEEK (MEAN)” value (Week 5) was 97.8. The “NUMBER OF ALL HOT FLUSHES PER WEEK (MEAN)” value (Week 6) was 43.7, the “NUMBER OF MODERATE TO SEVERE HOT FLUSHES PER WEEK (MEAN)” value (Week 6) was 39.8 and the “WEIGHTED SEVERITY SCORE OF HOT FLUSHES PER WEEK (MEAN)” value (Week 6) was 99.0. The “NUMBER OF ALL HOT FLUSHES PER WEEK (MEAN)” value (Week 7) was 39.2, the “NUMBER OF MODERATE TO SEVERE HOT FLUSHES PER WEEK (MEAN)” value (Week 7) was 34.7 and the “WEIGHTED SEVERITY SCORE OF HOT FLUSHES PER WEEK (MEAN)” value (Week 7) was 88.3. For the same compound, the “NUMBER OF ALL HOT FLUSHES PER WEEK (MEAN)” value (Week 8) was 41.8, the “NUMBER OF MODERATE TO SEVERE HOT FLUSHES PER WEEK (MEAN)” value (Week 8) was 38.1 and the “WEIGHTED SEVERITY SCORE OF HOT FLUSHES PER WEEK (MEAN)” value (Week 8) was 95.8. The “NUMBER OF ALL HOT FLUSHES PER WEEK (MEAN)” value (Week 9) was 42.4, the “NUMBER OF MODERATE TO SEVERE HOT FLUSHES PER WEEK (MEAN)” value (Week 9) was 38.5 and the “WEIGHTED SEVERITY SCORE OF HOT FLUSHES PER WEEK (MEAN)” value (Week 9) was 96.0. The “NUMBER OF ALL HOT FLUSHES PER WEEK (MEAN)” value (Week 10) was 40.5, the “NUMBER OF MODERATE TO SEVERE HOT FLUSHES PER WEEK (MEAN)” value (Week 10) was 36.6 and the “WEIGHTED SEVERITY SCORE OF HOT FLUSHES PER WEEK (MEAN)” value (Week 10) was 92.7. For the same compound, the “NUMBER OF ALL HOT FLUSHES PER WEEK (MEAN)” value (Week 11) was 39.5, the “NUMBER OF MODERATE TO SEVERE HOT FLUSHES PER WEEK (MEAN)” value (Week 11) was 35.6 and the “WEIGHTED SEVERITY SCORE OF HOT FLUSHES PER WEEK (MEAN)” value (Week 11) was 89.8. The “NUMBER OF ALL HOT FLUSHES PER WEEK (MEAN)” value (Week 12) was 39.7, the “NUMBER OF MODERATE TO SEVERE HOT FLUSHES PER WEEK (MEAN)” value (Week 12) was 35.8 and the “WEIGHTED SEVERITY SCORE OF HOT FLUSHES PER WEEK (MEAN)” value (Week 12) was 88.5. For the same compound, the “NUMBER OF ALL HOT FLUSHES PER WEEK (MEAN)” value (Week 13) was 36.2, the “NUMBER OF MODERATE TO SEVERE HOT FLUSHES PER WEEK (MEAN)” value (Week 13) was 32.8 and the “WEIGHTED SEVERITY SCORE OF HOT FLUSHES PER WEEK (MEAN)” value (Week 13) was 81.4. For the same compound, the “NUMBER OF ALL HOT FLUSHES PER WEEK (MEAN)” value (Week 14) was 37.8, the “NUMBER OF MODERATE TO SEVERE HOT FLUSHES PER WEEK (MEAN)” value (Week 14) was 34.2 and the “WEIGHTED SEVERITY SCORE OF HOT FLUSHES PER WEEK (MEAN)” value (Week 14) was 87.0. For the same compound, the “NUMBER OF ALL HOT FLUSHES PER WEEK (MEAN)” value (Week 15) was 36.5 and the “NUMBER OF MODERATE TO SEVERE HOT FLUSHES PER WEEK (MEAN)” value (Week 15) was 33.7.
